Assay results from patent publication US6649797B2, “Compounds and methods of use to treat infectious diseases” (The Picower Institute for Medical Research, priority 1996, dated 2003).
pIC50: −log10 of the molar value.

How the values were obtained:
Plasmodium berghei NYU-2 = experiment: Four day suppression test in Plasmodium berghei infected mice; assay type: in vivo; details: 50 mg/kg i.p. once daily for four days, P≦0.01
Procedure: FIG. 9. The activity of CNI-0294 against Plasmodium berghei infected mice. Female ND4 Swiss Webster mice were infected with infected erythrocytes and then treated once daily, for four days, with 50 mg/kg CNI-0294, or with distilled water. Six hours after the last dose, thin blood smears were made from each of the animals and the parasitemia was determined. The bars represent the median parasitemia (n=4 for controls and n=5 for treated).
The antimalarial activity of CNI-0294 in vivo was assessed by infecting female ND4 Swiss Webster mice with 100 μl of Plasmodium berghei NYU-2 infected mouse erythrocytes (50% parasitemia) by intraperitoneal injection. The animals were subsequently injected intraperitoneally once per day on days 1-4 of the infection with 0.5 ml water or 0.5 ml of 50 mg/kg CNI-0294 in water. Four hours after the final injection, small blood samples were taken from the tail, and thin smears stained with Dif-Quick (Baxter, Miami, Fla.). The parasitemia of control and treated animals was enumerated by inspection of at least 1000 erythrocytes in each animal.

[1] = tested on: macrophage-tropic strain of HIV-1; experiment: Inhibition of HIV-1 replication in peripheral blood-derived macrophages (IC50, RT or p24 in medium); assay type: cell-based; details: Human immunodeficiency virus 1, Macrophage, 120 h; 50% inhibition of viral growth; RT or p24 in medium about day 5 or 6 post-infection
Procedure: A quantitative measurement of the activity of the compounds of the invention to block the replication of HIV-1 in non-dividing cells can be determined by culture of a macrophage-tropic strain of HIV-1 on peripheral blood-derived macrophages. The cells are cultured for 5-6 days prior to infection in a medium consisting of DMEM supplemented with 10% type A/B human serum and 200 U/ml Macrophage Colony Stimulating Factor, with half the medium changed after 3 days, to reach a density of about 10^6 cells per 5 ml well. A macrophage-tropic viral stock may be grown on these cells. The concentration of infectious particles in the stock is estimated by measurement of p24 antigen concentration.
To test the effect of compounds of the invention on HIV-1 infection in the above-described culture system, the medium is removed and replaced with medium containing HIV-1 at a concentration of 1 ng of p24 (10^4 TCID50/ml (TCID=tissue culture infectious doses)) and a known concentration of the compound of the invention (the inhibitor). After 24 hours, the cultures are washed to remove non-adherent virus and the culture is re-fed with medium containing the inhibitor at the desired concentration. The amount of replication of HIV-1 is estimated by an assay of the reverse transcriptase activity or by an assay of the concentration of p24 antigen in the culture medium every 2-3 days throughout the post-infection period. In a preferred embodiment the anti-HIV potency of the candidate drug is measured by comparison of the concentration of reverse transcriptase (RT) or of p24 antigen in the medium of the treated and control cultures at the time of the peak of these values in non-treated control cultures, that is about day 5 or 6 post-infection. Repetition at various levels of inhibitor allows for the calculation of the concentration of inhibitor that achieves 50% inhibition of viral growth, IC50. Table I discloses the IC50 of various inhibitors.

HIV-1ADA = HIV-1ADA replication in purified monocytes, RT activity in supernatant (FIG. 2); assay type: cell-based; details: Human immunodeficiency virus 1, Monocyte, monocytes without M-CSF
Procedure: FIGS. 2A-C. The effect of various concentrations of Compound No. 2 on RT activity in the supernatant of HIV-1-infected monocytes. FIG. 2A: Multiplicity of Infection (MOI) 1 ng p24/10^6 monocytes, culture d in presence of M-CSF. FIG. 2B: MOI 8 ng p24/10^6 monocytes, cultured in absence of M-CSF. FIG. 2C: MOI 0.8 ng p24/10^6 monocytes, cultured in absence of M-CSF.
The cultures were treated with none or between 10^−12 and 10^−6 M Compound No. 2 and, simultaneously with the beginning of treatment, the cells were exposed to the monocyte-tropic strain HIV-1ADA at about 0.01 TCID50/cell (1 ng p24/10^6 cells) for 2 hours. Samples were withdrawn at days 3, 6, 10, 14 and 17 after infection and assayed for reverse transcription activity.
FIGS. 2B and 2C show the effects of various concentrations of Compound No. 2 on the production of HIV-1 in monocyte cultures not supplemented with M-CSF. In these studies MOI, as determined by concentration of p24 antigen was; FIG. 2B (8 ng/10^6 cells) and FIG. 2C (0.8 ng/10^6 cells).
Primary human monocytes were obtained from peripheral blood by Ficoll-Hypaque centrifugation and adherence to plastic as described previously. Gartner S. P., et al., 1986, Science 233:215. […]
Virus stock and infection. […] The concentration of HIV-1 was determined by immunoassay of viral p24, concentration; using a conversion factor of 1 ng/200 HIV-1 particles. […]

Compound	lowering of parasitemia (Plasmodium berghei NYU-2) [fold]	pIC50 [1]	pIC50 (HIV-1ADA; MOI 0.8 ng p24/10^6 cells (FIG. 2C))	pIC50 (HIV-1ADA; MOI 8 ng p24/10^6 cells (FIG. 2B))
CC(=O)c1cc(Nc2cc(C)[n+](C)c(N)n2)cc(C(C)=O)c1 [CNI-0294, 2-Amino-4-(3,5-diacetylphenyl)amino-1,6-dimethylpyrimidinium chloride]	10	–	–	–
CC(=O)c1cc(Nc2cc(C)[n+](C)c(N)n2)cc(C(C)=O)c1.[I-] [Compound No. 2, 2-amino-4-(3,5-diacetylphenyl)amino-1,6-dimethylpyrimidinium iodide]	–	9.00	> 9.00	~8.00
